Experimental data published in PubChem BioAssay AID2060901 (Molecular Pharmacology Branch, DTP, NCI, 2025).

Test system: 422866-222-R5-J1-PDC complex spheroids viability
Test: Anticancer human tumor 422866-222-R5-J1-PDC patient-derived pancreatic adenocarcinoma cell line growth inhibition [RAS]
Conditions: for viability, T/C: stronger effect = lower value; active = viability on the fitted dose curve at most 10% of control; inactive = the rest
Summary of the method: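 Multi-cell-type spheroids: tumor cells plus HUVEC endothelial cells and mesenchymal stem cells. RAS-pathway inhibitors were combined with targeted agents, each dosed in half-log steps down from clinical Cmax, or from 10 microM when Cmax was unknown.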
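Note: spheroids exposed to compounds for 7 days.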
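Throughout, for viability, T/C: 100% = DMSO vehicle control viability.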

Cc1nc(N2CCC3(CC2)COC(C)C3N)c(CO)nc1Sc1ccnc(N)c1Cl (stereo unspecified) + CCn1c(-c2cc(N3CCN(C)CC3)cnc2C(C)OC)c2c3cc(ccc31)-c1csc(n1)CC(NC(=O)C1CC1C)C(=O)N1CCCC(N1)C(=O)OCC(C)(C)C2
< 31.6 nM: IC50 (curve of first compound, second compound 0.000949 µM) | IC50 (curve of first compound, second compound 0.003 µM) | IC50 (curve of first compound, second compound 0.00949 µM) | IC50 (curve of first compound, second compound 0.03 µM) | IC50 (curve of first compound, second compound 0.0949 µM) | IC50 (curve of first compound, second compound 0.3 µM)
inactive: viability, T/C (second compound 0.000949 µM, first compound 0.0316 µM) 29.3% | viability, T/C (second compound 0.000949 µM, first compound 0.1 µM) 23.1% | viability, T/C (second compound 0.000949 µM, first compound 0.316 µM) 21.6% | viability, T/C (second compound 0.000949 µM, first compound 1 µM) 17.4% | viability, T/C (second compound 0.000949 µM, first compound 3.16 µM) 18.1% | viability, T/C (second compound 0.000949 µM, first compound 10 µM) 20.2% | viability, T/C (second compound 0.003 µM, first compound 0.0316 µM) 23.6% | viability, T/C (second compound 0.003 µM, first compound 0.1 µM) 18.5% | viability, T/C (second compound 0.003 µM, first compound 0.316 µM) 16.3% | viability, T/C (second compound 0.003 µM, first compound 1 µM) 16.7% | viability, T/C (second compound 0.003 µM, first compound 3.16 µM) 18.1% | viability, T/C (second compound 0.003 µM, first compound 10 µM) 21.2% | viability, T/C (second compound 0.00949 µM, first compound 0.0316 µM) 19.2% | viability, T/C (second compound 0.00949 µM, first compound 0.1 µM) 16.1% | viability, T/C (second compound 0.00949 µM, first compound 0.316 µM) 19.1% | viability, T/C (second compound 0.00949 µM, first compound 1 µM) 15.8% | viability, T/C (second compound 0.00949 µM, first compound 3.16 µM) 20.8% | viability, T/C (second compound 0.00949 µM, first compound 10 µM) 22.1% | viability, T/C (second compound 0.03 µM, first compound 0.0316 µM) 17.4% | viability, T/C (second compound 0.03 µM, first compound 0.1 µM) 16.3% | viability, T/C (second compound 0.03 µM, first compound 0.316 µM) 18.6% | viability, T/C (second compound 0.03 µM, first compound 1 µM) 17.5% | viability, T/C (second compound 0.03 µM, first compound 3.16 µM) 20.3% | viability, T/C (second compound 0.03 µM, first compound 10 µM) 20.4% | viability, T/C (second compound 0.0949 µM, first compound 0.0316 µM) 21% | viability, T/C (second compound 0.0949 µM, first compound 0.1 µM) 20.6% | viability, T/C (second compound 0.0949 µM, first compound 0.316 µM) 20% | viability, T/C (second compound 0.0949 µM, first compound 1 µM) 17.8% | viability, T/C (second compound 0.0949 µM, first compound 3.16 µM) 21.7% | viability, T/C (second compound 0.0949 µM, first compound 10 µM) 22.3% | viability, T/C (second compound 0.3 µM, first compound 0.0316 µM) 20.1% | viability, T/C (second compound 0.3 µM, first compound 0.1 µM) 20.2% | viability, T/C (second compound 0.3 µM, first compound 0.316 µM) 21.2% | viability, T/C (second compound 0.3 µM, first compound 1 µM) 18.1% | viability, T/C (second compound 0.3 µM, first compound 3.16 µM) 22.7% | viability, T/C (second compound 0.3 µM, first compound 10 µM) 24.4%

CCn1c(-c2cccnc2C(C)OC)c2c3cc(ccc31)N1CCOC(CC(NC(=O)C(C(C)C)N(C)C(=O)C3(F)CCN(C(=O)C#CC(C)(C)N(C)C)CC3)C(=O)N3CCCC(N3)C(=O)OCC(C)(C)C2)C1 (stereo unspecified)
inactive: viability, T/C (compound 0.000949 µM) 25.9% [middle of 8 runs] | viability, T/C (compound 0.003 µM) 23.3% [middle of 8 runs] | viability, T/C (compound 0.00949 µM) 21.9% [middle of 8 runs] | viability, T/C (compound 0.03 µM) 22.1% [middle of 8 runs] | viability, T/C (compound 0.0949 µM) 22.5% [middle of 8 runs] | viability, T/C (compound 0.3 µM) 20.2% [middle of 8 runs]
< 0.949 nM: IC50 (compound alone, run of 05/20/2024)

O=C(c1ccc(F)c(F)c1Nc1ccc(I)cc1F)N1CC(O)([C@@H]2CCCCN2)C1 + C=CC(=O)N1CCN(c2nc(OCC3CCCN3C)nc3c(F)c(-c4nc(N)cc(C)c4C(F)(F)F)c(Cl)cc23)C(C)C1
inactive: viability, T/C (second compound 0.00316 µM, first compound 0.00316 µM) 27.3% | viability, T/C (second compound 0.00316 µM, first compound 0.01 µM) 29% | viability, T/C (second compound 0.00316 µM, first compound 0.0316 µM) 20.7% | viability, T/C (second compound 0.00316 µM, first compound 0.1 µM) 18.1% | viability, T/C (second compound 0.00316 µM, first compound 0.316 µM) 16.6% | viability, T/C (second compound 0.00316 µM, first compound 1 µM) 17.1% | viability, T/C (second compound 0.01 µM, first compound 0.00316 µM) 39.6% | viability, T/C (second compound 0.01 µM, first compound 0.01 µM) 22.1% | viability, T/C (second compound 0.01 µM, first compound 0.0316 µM) 21.8% | viability, T/C (second compound 0.01 µM, first compound 0.1 µM) 15.2% | viability, T/C (second compound 0.01 µM, first compound 0.316 µM) 17% | viability, T/C (second compound 0.01 µM, first compound 1 µM) 12.9% | viability, T/C (second compound 0.0316 µM, first compound 0.00316 µM) 28.7% | viability, T/C (second compound 0.0316 µM, first compound 0.01 µM) 24.2% | viability, T/C (second compound 0.0316 µM, first compound 0.0316 µM) 18.3% | viability, T/C (second compound 0.0316 µM, first compound 0.1 µM) 14.5% | viability, T/C (second compound 0.0316 µM, first compound 0.316 µM) 17.8% | viability, T/C (second compound 0.0316 µM, first compound 1 µM) 14.6% | viability, T/C (second compound 0.1 µM, first compound 0.00316 µM) 22.3% | viability, T/C (second compound 0.1 µM, first compound 0.01 µM) 18.9% | viability, T/C (second compound 0.1 µM, first compound 0.0316 µM) 17.4% | viability, T/C (second compound 0.1 µM, first compound 0.1 µM) 13.8% | viability, T/C (second compound 0.1 µM, first compound 0.316 µM) 14.9% | viability, T/C (second compound 0.1 µM, first compound 1 µM) 14.3% | viability, T/C (second compound 0.316 µM, first compound 0.00316 µM) 18% | viability, T/C (second compound 0.316 µM, first compound 0.01 µM) 18.2% | viability, T/C (second compound 0.316 µM, first compound 0.0316 µM) 20.1% | viability, T/C (second compound 0.316 µM, first compound 0.1 µM) 12.6% | viability, T/C (second compound 0.316 µM, first compound 0.316 µM) 16.4% | viability, T/C (second compound 0.316 µM, first compound 1 µM) 14.1% | viability, T/C (second compound 1 µM, first compound 0.00316 µM) 19.7% | viability, T/C (second compound 1 µM, first compound 0.01 µM) 17.7% | viability, T/C (second compound 1 µM, first compound 0.0316 µM) 18.5% | viability, T/C (second compound 1 µM, first compound 0.1 µM) 15% | viability, T/C (second compound 1 µM, first compound 0.316 µM) 14.8% | viability, T/C (second compound 1 µM, first compound 1 µM) 16.1%
< 3.16 nM: IC50 (curve of first compound, second compound 0.00316 µM) | IC50 (curve of first compound, second compound 0.01 µM) | IC50 (curve of first compound, second compound 0.0316 µM) | IC50 (curve of first compound, second compound 0.1 µM) | IC50 (curve of first compound, second compound 0.316 µM) | IC50 (curve of first compound, second compound 1 µM)
